Measured values published in US6984659B2, “2-pyrrolidinone derivatives substituted at position 4 for reducing the extracellular glutamate level” (priority 1997, dated 2006).
Entries after “also recorded” stand apart in the source; their conditions may differ. Where a name gives a salt, the structure may show the parent alone.

Assays:
[1] = tested on: ischemia-induced [^3H]-Glu release; assay: in vitro ischemia model: ischemia-induced [^3H]-Glu release from [^3H]-Gln-loaded hippocampal slices; format: cell-based, rat
Protocol: Rat hippocampus slices 350 μm thick were incubated in 3 ml of medium at 37° C. for 60 minutes. The medium contained 2 μM [^3H]-Gln to label the endogenous Gln pool. The slices then synthesized Glu. The slices were washed and then exposed to superfusion with a buffer for 50 minutes. At 5-minute intervals, [^3H]-Glu was extracted by anion exchange chromatography from a total of 15 superfusion samples and was measured by liquid scintillation counting. The fractional rates of [^3H]-Glu release were calculated from the [^3H]-Glu extracted from the superfusion samples and from the tissue slices after the superfusion.
The model of endogenously produced [^3H]-Glu was likewise used to generate ischemic conditions in vitro. To make a slice “quasi ischemic”, oxygen and glucose were replaced by nitrogen and sucrose during the superfusion. Sucrose was used in place of […] glucose in order to maintain the osmolarity of the superfusion fluid. It is known that sucrose cannot be cleaved in vitro to glucose and fructose. Unlike the tests in which the [^3H]-Glu release was induced electrically, and in order to simulate an ischemia as well as possible, the [^3H]-Glu release was carried out during the incubation and superfusion at 37° C.
Slices of 350 μm thickness were incubated at 37° C. for 60 min in 3 ml medium containing 2 μM [^3H]-Gln in order to label endogenous Gln pools. These slices subsequently were synthesizing Glu. The slices were washed and then superfused for 50 min with buffer. [^3H]-Glu was extracted from 15 5-min-superfusion samples and from the slices by anion-exchange chromatography and measured by liquid scintillation counting. Fractional rates of [^3H]-Glu release were calculated from extracted [^3H]-Glu in the superfusion samples and in the tissue slices obtained after superfusion.
To reproduce in vitro ischemic conditions the model of endogenously formed [^3H]-Glu was also used. To make a slice “quasi-ischemic”, oxygen was replaced by nitrogen and glucose was replaced by sucrose during superfusion. Sucrose was used instead of glucose in order to maintain the osmolarity of the superfusion fluid without being cleaved into glucose and fructose in vitro. At variance to the experiments on electrically evoked [^3H]-Glu release and in order to mimic ischemia as close as possible the experiments on ischemia-induced [^3H]-Glu release were performed at 37° C. throughout incubation and superfusion.
To assess the potency of glibenclamide concentration-inhibition curves of GBP-L on ischemia-induced [^3H]-Glu efflux were obtained in the absence and presence of 0.1 μM glibenclamide (see Jehle et al. 2000).

[2] = tested on: electrically evoked release of Glu; assay: electrically evoked [^3H]-Glu release from [^3H]-Gln-loaded hippocampus slices; format: cell-based, rat
[3] = tested on: mitochondrial KATP channels; conditions: for comparison; cited from earlier work
[4] = tested on: potassium-evoked release of [^3H]-noradrenaline; conditions: cited from earlier work

## O=C(O)[C@@H]1CN[C@@H](C(=O)O)C1 (relative stereo) [PDC, L-trans-pyrrolidine-2,4-dicarboxylate]
[1]; 100 μM
  response to the ischemia ([^3H]-Glu release): noticeably reduced; also recorded: diminishes the response to ischemia markedly

## NC1=N[C@H](O)[C@H]2[C@H]3O[C@]4(O)O[C@@H]([C@@H](O)[C@@]2(N1)[C@@H]4O)[C@]3(O)CO [TTX, tetrodotoxin, reference compound]
[2]
  electrically evoked release of Glu (in words): partly inhibited; also recorded: widely inhibited

## CC1=NS(=O)(=O)c2cc(Cl)ccc2N1 [diazoxide]
[3]
  IC50: 50 µM

## COc1ccc(Cl)cc1C(=O)NCCc1ccc(S(=O)(=O)NC(=O)NC2CCCCC2)cc1 [glibenclamide]
[1]; glibenclamide 0.1 μM against GBP-L concentration-response curve
  pA2 value: 8.28
[1]; glibenclamide 1 μM
  influence on the effect of GBP-L on ischemia-induced [^3H]-Glu release: completely abolished

## Nc1cc(N2CCCCC2)nc(N)[n+]1OS(=O)(=O)[O-] [minoxidil sulfate]
[1]; 10 μM
  ischemia-induced [^3H]-Glu efflux (in words): significantly reduced

## CC(C)C[C@H](CN)CC(=O)O [pregabalin]
[4]
  potassium-evoked release of [^3H]-noradrenaline (in words): inhibitory effects
